“And” between values parts separate entries of the source, which are not always exact repeats. Identical values can stand only once. Like-named read-outs stand apart in the source and are kept apart here.
Legend:
human CB2 receptor = biological target: T1, human CB2 receptor (Homo sapiens, UniProt P34972); assay: CB2 receptor binding, [3H]CP55,940 displacement in membranes of transfected cells; conditions: mean±SEM, read-out: CB2 Ki
T1 construct: expressed in transfected cells; b94 says HEK for CB2
T1 sequence (P34972 whole entry): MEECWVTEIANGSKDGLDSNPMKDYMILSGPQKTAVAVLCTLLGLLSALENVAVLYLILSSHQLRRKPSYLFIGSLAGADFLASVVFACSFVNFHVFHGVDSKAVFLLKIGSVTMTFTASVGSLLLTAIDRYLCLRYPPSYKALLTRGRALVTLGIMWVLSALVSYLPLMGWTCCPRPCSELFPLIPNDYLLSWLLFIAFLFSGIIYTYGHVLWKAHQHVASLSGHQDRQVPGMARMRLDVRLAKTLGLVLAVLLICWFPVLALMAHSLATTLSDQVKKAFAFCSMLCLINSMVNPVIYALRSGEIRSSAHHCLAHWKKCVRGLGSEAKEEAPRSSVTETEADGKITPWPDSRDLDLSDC
Procedure: cLogP calculations. Absolute solubility determinations were not performed. Rather, cLogP calculations were performed using the CS ChemDraw Ultra software (Cambridge Soft Corporation, Cambridge, Mass.). Receptor Binding. HEK-293 cells stably expressing the human CB1 receptor were cultured in DMEM with 10% FBS and Chinese Hamster Ovary (CHO) cells stably expressing the human CB2 receptor were cultured in DMEM with 10% FCS. Cells were harvested by replacement of the media with cold phosphate-buffered saline containing 1 mM EDTA followed by centrifugation at 1000×g for 5 min at 4° C. The pellet was resuspended in 50 mM Tris-HCl containing 320 mM sucrose, 2 mM EDTA and 5 mM MgCl2 (pH 7.4) (centrifugation buffer), then centrifuged at 1000×g for 10 min at 4° C., and the resulting supernatant was saved. This process was repeated twice. The supernatant fractions were combined and centrifuged at 40,000×g for 30 min at 4° C. The resulting P2 pellet was resuspended in assay buffer (50 mM Tris-HCl (pH 7.4), 3 mM MgCl2, 0.2 mM EGTA, and 100 mM NaCl) and protein was determined by the method of Bradford ENRfu(Bradford 1976). Membranes were stored at −80° C. until use. […] The assay was incubated at 30° C. for 1 hr and terminated by addition of ice cold 50 mM Tris-HCl plus BSA (1 mg/ml) (pH 7.4) followed by filtration under vacuum through Whatman GF/B glass fiber filters with 3 washes with cold Tris buffer. Bound radioactivity was determined by liquid scintillation spectrophotometry at 50% efficiency after extraction by shaking samples for 30-60 min with Budget-Solve scintillation fluid. Data are reported as the mean±SEM of three experiments, each performed in triplicate. Ki values were calculated from displacement data using EBDA (Equilibrium Binding Data Analysis; BIOSOFT, Milltown, N.J.). [^35S]GTPγS Binding Assays. Concentration-effect curves were generated by incubating membranes (10 μg prepared from CB1 expressing cells as described above) in assay buffer containing BSA (1 mg/ml) with various concentrations of test compounds in the presence of 20 μM GDP and 0.1 nM [^35S]GTPγS in a 1 ml total volume. […] Basal binding was assessed in the absence of agonist, and nonspecific binding was measured in the presence of 10 μM GTPγS. The reaction was incubated for 90 min at 30° C. and terminated by filtration under vacuum through Whatman GF/B glass fiber filters with 3 washes with cold (4° C.) Tris buffer (50 mM Tris-HCl, pH 7.4). Bound radioactivity was determined by liquid scintillation spectrophotometry at 95% efficiency after extraction overnight in ScintiSafe Econo 1 scintillation fluid. Data are reported as mean±SEM of three experiments, each performed in triplicate. Nonlinear regression analysis was conducted by iterative fitting using JMP (SAS for Macintosh). Net-stimulated [^35S]GTPγS binding is defined as [^35S]GTPγS binding in the presence of drug minus basal and percent stimulation is expressed as (net stimulated [^35S]GTPγS binding/basal)×100%. Behavioral Evaluations. All animals were allowed to acclimate to the observation room overnight. Behavioral effects were assessed in the tetrad model in order to measure potency in producing antinociception, catalepsy, hypothermia, and hypomobility. The baselines for tail-flick latency (2-4 seconds) and rectal temperature were determined prior to i.v. injections. Baseline rectal temperatures were measured using a telethermometer and a thermometer probe inserted to 25 mm (Yellow Springs Instrument Co., Yellow Springs, Ohio). The mice were then given either an i.v. i.c.v. injection of the analog. The mice were placed in individual photocell activity chambers 5 min later. Spontaneous activity was monitored for 10 min in a Digiscan Animal Activity Monitor (Omnitech Electronice, Inc., Columbus, Ohio) as measured by the number of interruptions of 16 photocell beams per chamber. The total number of beam interruptions during the 10-min period was determined and presented as total counts.

[1] = Procedure: By “water-soluble” we mean that 1 mg of material in 1 ml of water gives a clear solution and is water miscible.
For the in vivo studies, the drugs were dissolved in either saline or emulphor:ethanol:saline (E:E:S) as indicated.

[2] = 1 mg of analog in 1 ml of water, visual observation

| Molecule | Ki (human CB2 receptor; Tables 2b, 3b, 4a) | Solubility (water-soluble) [1, 2] | Ki (human CB2 receptor; Table 1B) | Solubility (water-soluble) [1] | Water solubility of the hydrochloride salt [1] |
| --- | --- | --- | --- | --- | --- |
| 1-(2-methyl-4-N-piperidinobutyryloxy) [O-2374] | 1.1 ± 0.1 nM | Yes |  |  |  |
| CC1=CC[C@@H]2[C@@H](C1)c1c(O)cc(C(C)(C)CCCCC(N)=O)cc1OC2(C)C [O-2352, Carboxamido] |  |  | 0.84 ± 0.05 nM | No | none of the HCl salts was water-soluble |
| CC1=CC[C@@H]2[C@@H](C1)c1c(O)cc(C(C)(C)CCCCC(=O)N3CCOCC3)cc1OC2(C)C [O-2372, Morpholino-carboxamido] |  |  | 0.57 ± 0.04 nM | No | none of the HCl salts was water-soluble |
| CC1=CC[C@@H]2[C@@H](C1)c1c(O)cc(C(C)(C)CCCCC(=O)N3CCCCC3)cc1OC2(C)C [O-2373, Piperidino-carboxamido] |  |  | 0.96 ± 0.01 nM | No | none of the HCl salts was water-soluble |
| CC1=CC[C@@H]2[C@@H](C1)c1c(O)cc(C(C)(C)CCCCC(=O)N3CCN(C)CC3)cc1OC2(C)C [O-2381, Methylepiperazino-carboxamido] |  |  | 389 ± 46 nM | No |  |
| CC1=CC[C@@H]2[C@@H](C1)c1c(O)cc(C(C)(C)CCCCC(=O)N3CCCC3)cc1OC2(C)C [O-2399, Pyrrolidino-carboxamido] |  |  | 2.86 ± 0.68 nM | No | none of the HCl salts was water-soluble |
| CC1=CC[C@@H]2[C@@H](C1)c1c(O)cc(C(C)(C)CCCCC(=O)N3CCCCCC3)cc1OC2(C)C [O-2421, Homopiperidino-carboxamido] |  |  | 3.45 ± 0.58 nM | No |  |
| CC1=CC[C@@H]2[C@@H](C1)c1c(O)cc(C(C)(C)CCCCC(=O)NN3CCCCCC3)cc1OC2(C)C [O-2489, N-(Homo-piperidin-1-yl)-carboxamido] |  |  | 35.3 ± 4.48 nM | No |  |
| CNC(=O)CCCCC(C)(C)c1cc(O)c2c(c1)OC(C)(C)[C@@H]1CC=C(C)C[C@@H]21 [O-2490, N-(Methyl)carboxamido] |  |  | 3.16 ± 0.75 nM | No |  |
| CC1=CC[C@@H]2[C@@H](C1)c1c(O)cc(C(C)(C)CCCCC(=O)NN3CCCC3)cc1OC2(C)C [O-2543, N-(Pyrrolidin-yl)-carboxamido] |  |  | 10.8 ± 0.08 nM | No |  |
| CC1=CC[C@@H]2[C@@H](C1)c1c(O)cc(C(C)(C)CCCCC(=O)NN3CCOCC3)cc1OC2(C)C [O-2544, N-(Morpholin-1-yl)-carboxamido] |  |  | 11.4 ± 0.91 nM | No | none of the HCl salts was water-soluble |
| CC1=CC[C@@H]2[C@@H](C1)c1c(O)cc(C(C)(C)CCCCn3ccnc3)cc1OC2(C)C [O-2545, Imidazol-1-yl] | 0.12 nM and 0.32 nM |  |  |  |  |
| CC1=CC[C@@H]2[C@@H](C1)c1c(O)cc(C(C)(C)CCCCn3ccnc3C)cc1OC2(C)C [O-2651, 2-Methyl-imidazol-1-y1] | 1.22 ± 0.28 nM |  |  | Yes |  |
| CC1=CC[C@@H]2C(C1)c1c(OC(=O)CCCN(C(C)C)C(C)C)cc(C(C)(C)CCCCC(=O)N3CCOCC3)cc1OC2(C)C (some centres unmarked) [O-2694, Diisopropylaminobutyrate of Δ^8-THC-3-(1,1-dimethyl-6-morpholin-4-yl-6-oxo-hexyl)] | 2.77 ± 0.44 nM | Yes |  |  |  |
| CC1=CC[C@@H]2[C@@H](C1)c1c(O)cc(C(C)(C)CCCCn3cccn3)cc1OC2(C)C [O-2715, Pyrazol-1-yl] | 1.52 ± 0.31 nM |  |  | No |  |
| CC1=CC[C@@H]2[C@@H](C1)c1c(O)cc(C(C)(C)CCCCn3cncn3)cc1OC2(C)C [O-2716, 1,2,4-Triazol-1-yl] | 0.92 ± 0.07 nM |  |  | No |  |
| CC1=CC[C@@H]2[C@@H](C1)c1c(O)cc(C(C)(C)CCCCc3ncc[nH]3)cc1OC2(C)C [O-2737, 1H-Imidazol-2-yl] | 14.8 ± 1.14 nM |  |  | Yes |  |
